Assay results: ChEMBL document CHEMBL6096706, “Discovery of WDR5-MLL1 and HDAC Dual-Target Inhibitors for the Treatment of Acute Myeloid Leukemia” (J Med Chem, 2025)

Tests used:
MV4-11 [1] = assay: Induction of apoptosis in human MV4-11 cells assessed as necrotic cells at 200 nmol/L incubated for 72 hrs by Annexin V/PI staining based flow cytometry analysis (reference value: 0.46%); assay type: functional
MV4-11 [2] = assay: Induction of apoptosis in human MV4-11 cells assessed as late apoptotic cells at 200 nM incubated for 72 hrs in presence of vorinostat by Annexin V/PI staining based flow cytometry analysis (reference value: 6.42 %); assay type: functional
MV4-11 [3] = assay: Induction of apoptosis in human MV4-11 cells assessed as late apoptotic cells at 200 nmol/L incubated for 72 hrs by Annexin V/PI staining based flow cytometry analysis (reference value: 5.14%); assay type: functional
MV4-11 [4] = assay: Induction of apoptosis in human MV4-11 cells assessed as necrotic cells at 200 nM incubated for 72 hrs by Annexin V/PI staining based flow cytometry analysis (reference value: 2.61%); assay type: functional
MV4-11 [5] = assay: Antiproliferative activity against human MV4-11 cells assessed as growth inhibition at 0.05 uM measured after 72 hrs in presence of 0.2 uM of vorinostat by CellTiterGlo assay; assay type: functional; details: read-out: GI
MV4-11 [6] = assay: Antiproliferative activity against human MV4-11 cells assessed as growth inhibition at 0.05 uM measured after 72 hrs in presence of 0.1 uM of vorinostat by CellTiterGlo assay; assay type: functional; details: read-out: GI
MV4-11 [7] = assay: Antiproliferative activity against human MV4-11 cells assessed as growth inhibition at 0.2 uM measured after 72 hrs in presence of 0.05 uM of vorinostat by CellTiterGlo assay; assay type: functional; details: read-out: GI
MV4-11 [8] = assay: Antiproliferative activity against human MV4-11 cells assessed as growth inhibition at 2 uM measured after 72 hrs in presence of 0.05 uM of vorinostat by CellTiterGlo assay; assay type: functional; details: read-out: GI
MV4-11 [9] = assay: Induction of apoptosis in human MV4-11 cells assessed as viable cells at 200 nM incubated for 72 hrs in presence of vorinostat by Annexin V/PI staining based flow cytometry analysis (reference value: 96.68%); assay type: functional; details: read-out: Activity
MV4-11 [10] = assay: Antiproliferative activity against human MV4-11 cells assessed as growth inhibition at 1 uM measured after 72 hrs in presence of 0.5 uM of vorinostat by CellTiterGlo assay; assay type: functional; details: read-out: GI
MV4-11 [11] = assay: Antiproliferative activity against human MV4-11 cells assessed as growth inhibition at 0.1 uM measured after 72 hrs in presence of 0.2 uM of vorinostat by CellTiterGlo assay; assay type: functional; details: read-out: GI
MV4-11 [12] = assay: Antiproliferative activity against human MV4-11 cells assessed as growth inhibition at 0.2 uM measured after 72 hrs by CellTiterGlo assay; assay type: functional; details: read-out: GI
MV4-11 [13] = assay: Antiproliferative activity against human MV4-11 cells assessed as growth inhibition at 0.1 uM measured after 72 hrs in presence of 0.4 uM of vorinostat by CellTiterGlo assay; assay type: functional; details: read-out: GI
MV4-11 [14] = assay: Antiproliferative activity against human MV4-11 cells assessed as growth inhibition at 0.5 uM measured after 72 hrs in presence of 0.2 uM of vorinostat by CellTiterGlo assay; assay type: functional; details: read-out: GI
MV4-11 [15] = assay: Antiproliferative activity against human MV4-11 cells assessed as growth inhibition at 0.2 uM measured after 72 hrs in presence of 0.5 uM of vorinostat by CellTiterGlo assay; assay type: functional; details: read-out: GI
MV4-11 [16] = assay: Induction of apoptosis in human MV4-11 cells assessed as early apoptotic cells at 200 nmol/L incubated for 72 hrs by Annexin V/PI staining based flow cytometry analysis (reference value: 4.17 %); assay type: functional
MV4-11 [17] = assay: Antiproliferative activity against human MV4-11 cells assessed as growth inhibition at 2 uM measured after 72 hrs in presence of 0.2 uM of vorinostat by CellTiterGlo assay; assay type: functional; details: read-out: GI
MV4-11 [18] = assay: Induction of apoptosis in human MV4-11 cells assessed as viable cells at 200 nM incubated for 72 hrs by Annexin V/PI staining based flow cytometry analysis (reference value: 96.68%); assay type: functional; details: read-out: Activity
MV4-11 [19] = assay: Induction of apoptosis in human MV4-11 cells assessed as necrotic cells at 600 nM incubated for 72 hrs in presence of vorinostat by Annexin V/PI staining based flow cytometry analysis (reference value: 2.61%); assay type: functional
MV4-11 [20] = assay: Induction of apoptosis in human MV4-11 cells assessed as viable cells at 200 nmol/L incubated for 72 hrs by Annexin V/PI staining based flow cytometry analysis (reference value: 90.23%); assay type: functional; details: Homo sapiens, MV4-11, read-out: Activity
MV4-11 [21] = assay: Antiproliferative activity against human MV4-11 cells assessed as growth inhibition at 1 uM measured after 72 hrs by CellTiterGlo assay; assay type: functional; details: read-out: GI
MV4-11 [22] = assay: Induction of apoptosis in human MV4-11 cells assessed as early apoptotic cells at 50 nmol/L incubated for 72 hrs by Annexin V/PI staining based flow cytometry analysis (reference value: 4.17 %); assay type: functional
Histone deacetylase 8 = molecular target: T1, Histone deacetylase 8 (Homo sapiens, UniProt Q9BY41); assay: Inhibition of HDAC8 (unknown origin) by fluorescence based assay
T1 sequence (Q9BY41 whole entry): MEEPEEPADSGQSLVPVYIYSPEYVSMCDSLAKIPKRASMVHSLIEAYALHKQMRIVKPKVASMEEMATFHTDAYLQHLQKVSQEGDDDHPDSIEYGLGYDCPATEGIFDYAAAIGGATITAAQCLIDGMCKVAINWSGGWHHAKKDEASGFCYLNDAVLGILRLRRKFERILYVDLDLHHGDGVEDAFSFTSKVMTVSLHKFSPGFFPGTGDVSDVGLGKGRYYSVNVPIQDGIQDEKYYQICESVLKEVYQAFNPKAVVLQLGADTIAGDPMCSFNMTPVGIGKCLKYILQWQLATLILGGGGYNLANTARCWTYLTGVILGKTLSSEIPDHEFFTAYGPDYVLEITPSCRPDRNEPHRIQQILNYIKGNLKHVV

Histone deacetylase 11 = molecular target: T2, Histone deacetylase 11 (Homo sapiens, UniProt Q96DB2); assay: Inhibition of HDAC11 (unknown origin) by fluorescence based assay
T2 sequence (Q96DB2 whole entry): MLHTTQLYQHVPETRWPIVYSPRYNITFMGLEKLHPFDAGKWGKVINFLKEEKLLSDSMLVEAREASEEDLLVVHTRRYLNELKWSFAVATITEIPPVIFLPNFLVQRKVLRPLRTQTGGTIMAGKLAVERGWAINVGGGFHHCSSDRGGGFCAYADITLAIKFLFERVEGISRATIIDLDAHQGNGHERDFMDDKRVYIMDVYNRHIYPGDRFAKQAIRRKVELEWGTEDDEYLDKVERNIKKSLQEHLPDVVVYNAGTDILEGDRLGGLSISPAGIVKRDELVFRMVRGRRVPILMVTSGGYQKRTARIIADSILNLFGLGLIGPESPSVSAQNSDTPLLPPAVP

[23] = Toxicity in mouse implanted in human MV4-11 cells assessed as kidney damage at 10 to 30 mg/kg, ip administered daily for 17 days by H and E staining based analysis; assay type: organism-based; details: in vivo, 408 h, dose 10-30 mg/kg, time 17 day
[24] = Toxicity in mouse implanted in human MV4-11 cells assessed as body weight loss at 10 to 30 mg/kg, ip administered daily for 17 days; assay type: organism-based; details: in vivo, 408 h, dose 10-30 mg/kg, time 17 day
MV4-11 [25] = assay: Induction of apoptosis in human MV4-11 cells assessed as early apoptotic cells at 100 nmol/L incubated for 72 hrs by Annexin V/PI staining based flow cytometry analysis (reference value: 4.17 %); assay type: functional

Q: Which Activity (MV4-11 [1]) does the source give for `Cc1c(F)c(N)cc(C(=O)Nc2cc(-c3ccc(C(=O)N4CCOCC4)cc3)ccc2N2CCN(C)CC2)c1Cl` here?
A: Its Activity is 0.58%.

Q: What about the Activity (MV4-11 [2]) of the same compound?
A: Its Activity is 7.65%.

Q: And the Activity (MV4-11 [3])?
A: The Activity was 3.51%.

Q: And the Activity (MV4-11 [4])?
A: Its Activity is 1.62%.

Q: What about the inhibition of growth at 0.05 µM (MV4-11 [5]) of the same compound?
A: Its inhibition of growth at 0.05 µM is 46.6%.

Q: And the inhibition of growth at 0.05 µM (MV4-11 [6])?
A: The inhibition of growth at 0.05 µM was 34.5%.

Q: And the inhibition of growth at 0.2 µM (MV4-11 [7])?
A: Its inhibition of growth at 0.2 µM is 36.8%.

Q: And the inhibition of growth at 2 µM (MV4-11 [8])?
A: The inhibition of growth at 2 µM was 55.9%.

Q: And the viability at 0.2 µM (MV4-11 [9])?
A: Its viability at 0.2 µM is 57%.

Q: And the inhibition of growth at 1 µM (MV4-11 [10])?
A: Its inhibition of growth at 1 µM is 77.1%.

Q: What about the inhibition of growth at 0.1 µM (MV4-11 [11]) of the same compound?
A: Its inhibition of growth at 0.1 µM is 49.3%.

Q: What about the inhibition of growth at 0.2 µM (MV4-11 [12]) of the same compound?
A: The inhibition of growth at 0.2 µM was 23.9%.

Q: And the inhibition of growth at 0.1 µM (MV4-11 [13])?
A: Its inhibition of growth at 0.1 µM is 59%.

Q: And the inhibition of growth at 0.5 µM (MV4-11 [14])?
A: Its inhibition of growth at 0.5 µM is 58.9%.

Q: And the inhibition of growth at 0.2 µM (MV4-11 [15])?
A: The inhibition of growth at 0.2 µM was 74.7%.

Q: What about the Activity (MV4-11 [16]) of the same compound?
A: The Activity was 7.36%.

Q: What about the inhibition of growth at 2 µM (MV4-11 [17]) of the same compound?
A: Its inhibition of growth at 2 µM is 72.3%.

Q: And the viability at 0.2 µM (MV4-11 [18])?
A: Its viability at 0.2 µM is 90.3%.

Q: And the Activity (MV4-11 [19])?
A: The Activity was 1.55%.

Q: And the viability at 0.2 µM (MV4-11 [20])?
A: Its viability at 0.2 µM is 88.5%.

Q: What about the inhibition of growth at 1 µM (MV4-11 [21]) of the same compound?
A: Its inhibition of growth at 1 µM is 40.7%.

Q: With `Cc1c(F)c(N)cc(C(=O)Nc2cc(-c3ccc(C(=O)NCc4ccc(/C=C/C(=O)NO)cc4)cc3)ccc2N2CCN(C)CC2)c1Cl` as the compound, how does the Activity (MV4-11 [1]) read?
A: Its Activity is 0.41%.

Q: What about the Activity (MV4-11 [3]) of the same compound?
A: The Activity was 6.01%.

Q: And the Activity (MV4-11 [22])?
A: The Activity was 11.03%.

Q: And the Activity (MV4-11 [16])?
A: Its Activity is 53.31%.

Q: What about the IC50 (Histone deacetylase 8) of the same compound?
A: The IC50 was 5.3 µM.

Q: And the IC50 (Histone deacetylase 11)?
A: Its IC50 is over 10 µM.

Q: What about the Activity [23] of the same compound?
A: The Activity was “Non-toxic”.

Q: And the viability at 0.2 µM (MV4-11 [20])?
A: The viability at 0.2 µM was 40.3%.

Q: What about the Activity [24] of the same compound?
A: Its Activity is “Non-toxic”.

Q: And the Activity (MV4-11 [25])?
A: The Activity was 19.42%.
